According to patent publication US5667764A, “Compounds, compositions and methods for binding bio-affecting substances to surface membranes of bio-particles” (Zynaxis, Inc., priority 1992, dated 1997):
Read-outs that look alike come from different tables or passages of the source.

Key:
[1] = system: rabbit hind limb (femoral arterial bed), substance P receptors; assay: Vascular response in rabbit blood perfused hind limb preparation; assay type: in vivo
Source text: The in vivo receptor pharmacology of the compound produced in Example 3d., above, was studied in a rabbit blood perfused hind limb preparation similar to that described by U. Forstermann et al., J. Pharmacol. Exp. Ther., 234: 1055-61 (1987). Blood from a pentobarbital anesthetized, artificially ventilated rabbit was withdrawn from a cannulated carotid artery, passed within medical grade silastic tubing through a constant speed roller pump, and directed to a cannulated femoral artery. Distal perfusion pressure in the femoral arterial bed was measured (in mm Hg) by means of a micropressure transducer (Millar) passed down the perfusion tubing so as to lie just beyond the tip of the femoral catheter. Initially, pump speed was adjusted so that distal perfusion pressure approximated systemic mean arterial blood pressure after which blood flow was kept constant for the remainder of each experiment. Changes in resistance then varied directly as distal perfusion pressure in a manner similar to that described by Ohm's law, such that:
Vascular Resistance=Perfusion Pressure Blood Flow
Thus, by maintaining blood flow constant for the duration of each experiment, changes in distal perfusion pressure directly reflected vascular resistance such that a decrease in pressure signifies vasodilation and an increase in pressure signifies vasoconstriction. Direct injection into the perfusion circuit could thus be used to assess the vascular biology and pharmacology of substances believed to exert actions on in vivo vascular smooth muscle tone.

[2] = system: lumenal surface of the femoral arteries; assay: Retention at intravascular site; assay type: in vivo, rabbit
Protocol: To determine whether the compounds of the invention will remain at an intravascular site once applied experiments were performed wherein ^125 I-substituted lipophilic cyanine, prepared as described in Example 2 (compound 12, Reaction Scheme 2) was applied to the lumenal surface of the femoral arteries of anesthetized rabbits. The femoral artery was surgically isolated and a small, proximal side branch was cannulated with a short length of PE10 tubing. A 1 cm arterial segment surrounding the side branch was occluded and 20-50μl of a solution containing ^125 I-substituted compound 12 was administered through the cannula to the occluded section and allowed to remain for 5-10 min. The ^125 I-substituted compound was then withdrawn along with the cannula, the side branch was permanently tied, the femoral artery occlusion removed to allow the return of blood flow, and the femoral incision was closed. ^125 I-radioactivity was then monitored at selected times over the next 3 weeks with a Ludium Model 2200 Scaler Ratemeter and a Model 44-17 2 inch crystal with windows optimized for the detection of ^125 I.

[3] = system: myointimal thickening; conditions: animal models; cited from earlier work
[4] = system: A10 cells; assay: Antiproliferative activity on A10 cells after one 10 minute application; assay type: cell-based, rat; conditions: for Cell count: 10 μM, 10 minute application
Protocol: To determine the antiproliferative action of the compounds of invention, in vitro studies were performed using A10 cells, a clonal cell line originally derived from the thoracic aorta of embryonic rats, that proliferate as myoblasts and develop into cells which phenotypically resemble smooth muscle cells (B. Kimes and B. Brandt, Exptl. Cell Res. 98:349 (1976). Typically, twelve-well plates were seeded with 2500-10,000 A10 cells/cm^2 in Dulbecco's Modified Eagles Medium (DMEM) with 10% fetal calf serum (FCS) and allowed to adhere and stabilize for 24 hours at 37° C. Test substances were then prepared in the required concentrations in appropriate cell binding media and, after aspirating the plating medium, applied to the individual wells at 37° C. for a period of only 10 minutes. The treatments were then aspirated, the wells washed 4 times with non-treatment containing medium and then placed in non-treatment containing DMEM with 10% FCS for the duration of the study. At various times after treatment application, triplicate wells were aspirated, the aspirate saved, and the wells treated with 0.25 ml of 0.25% trypsin to release the adherent cells. The enzymatic action of trypsin on the cells was stopped by addition of excess protein (1.75 ml DMEM+10% FCS), the aspirate returned to the wells, and an aliquot of the resultant cell suspension counted in a Coulter Counter (Model ZM with Sampling Stand II). Cell count was normalized to cells per square centimeter of growing area (surface area of well bottom).

[5] = Source text: The HPLC system used comprised a Waters Model 600E solvent delivery system with W600E gradient controller, U6K injector and Model 990 photodiode array detector. Chromatography conditions were as follows: Column: Waters Nova-Pak (phenyl, 4 μm, 3.9 mm×15 cm); Mobile phase: Solvent A=Water:Methanol:Acetonitrile:PIC A reagent (Waters) (395:25:80:4), Solvent B=Water:Methanol: Acetonitrile:PIC A reagent (225:25:250:4), Solvent C=Methanol:Water:PIC A reagent (490:15:4). Gradient conditions: 100% (A) to 60%:40% (A:B) over 20 minutes then to 100% (C) over 10 minutes followed by 100% (C) for 40 minutes. Flow rate: 2 mL/min. Detection: photodiode array from 240-575 nm.
The rate of acid hydrolysis of hydrazone conjugate (19) to produce 7-N-(5-oxopentanoyl) deacetyl colchicine was studied by HPLC at 3 different pH's.
Buffer solutions were prepared according to the procedures described by Gomori, "Methods in Enzymology", 16:138 (1955). HPLC conditions and retention times were the same as described above.
Compound solutions to be studied were prepared by adding 50 μl of hydrazone conjugate solution (1 mg/ml of methanol) to a screw capped vial (1 ml) containing citrate phosphate buffer (200 μl) of the desired pH. The vials were kept closed and the solutions were analysed by HPLC (350 nm detection) for conjugate (19) remaining and 7-N-(5-oxopentanoyl) deacetyl colchicine produced at 24 h and 48 h. Each hplc injection was […].

[6] = system: rabbit red blood cell ghosts; assay: Binding of anticoagulant conjugate to rabbit red blood cell ghosts; conditions: 24 h, 37° C.
Protocol: Ghosts were then washed extensively and placed in phosphate buffered saline with lmM EDTA and 5% BSA for 24 h at 37° C. Samples were agitated and a 50 μl aliquot removed from each sample and placed in 200 μl of Triton X-100® in a microtiter plate well (representingtotal suspension fluorescence). The original samples were centrifuged for 10 minutes and a 50 μl sample of the ghost supernatant removed and placed in 200 μl of Triton X-100® (representing free fluorescence in the aqueous phase only). The fluorescence of all samples was determined on a fluorometric microtiter plate reader. Bound fluorescence was determined by subtraction of free from total after correction for background fluorescence from unstained ghosts; the percent free and bound fluorescence was determined by dividing the bound and free fluorescence by total fluorescence, respectively and multiplying by 100.

[7] = labeling 10 μM (compound 7), 20 μM (conjugate, FITC-heparin)

CC(C)NCC(O)c1ccc(O)c(O)c1 (stereo not drawn) [isoproterenol, reference compound]
Effect of antagonist [D-Pro^2,D-Trp^7.9]-substance P on the response ([1]; during infusion of antagonist): not antagonized by the SP antagonist | Hind-limb perfusion pressure response ([1]; local injection, no antagonist): dose related decrease in perfusion pressure

CCCCCCCCCCCCCCCCCCCCCCN1C(=CC=CC2=[N+](CCCCCCCCCCCCCC)c3ccccc3C2(C)C)C(C)(C)c2cc([125I])ccc21 [Compound 12, N-docosanyl-N'-tetradecyl-5-iodo-3,3,3',3'-tetramethylindocarbocyanine chloride]
Applied material (radioactivity) remaining within the artery ([2]; after first 24 hour, mean±sem, n=4): 34.0±10.9% | Elimination half-life after the first 24 hours ([2]; after first 24 hours): 365.8 ± 69.4 h | Initial elimination half-life ([2]; first 24 hour): 18.5 ± 6.96 h | Time detectable after application ([2]; rabbit, in vivo): at least 3 weeks

CN(C/C=C/C#CC(C)(C)C)Cc1cccc2ccccc12 [Terbinafine]
Myointimal thickening [3]: reduction of myointimal thickening

CCCCCCCCCCCCCCCCCCCCCCN1C(=CC=CC2=[N+](CCCCCCCCCCCCCC)c3ccc(CNC(=O)CCCC(=O)NN=CCCCC(=O)N[C@H]4CCc5cc(OC)c(OC)c(OC)c5-c5ccc(OC)c(=O)cc54)cc3C2(C)C)C(C)(C)c2ccccc21 [Compound 19, 7-N(5-oxopentanoyl) deacetyl colchicine Lipophilic Cyanine Hydrazone Conjugate]
Cell count ([4]; day 0): 2291.12 cells per square centimeter | Cell count ([4]; day 1): 2625.33 cells per square centimeter | Cell count ([4]; day 2): 2369.45 cells per square centimeter | Cell count ([4]; day 3): 2206.27 cells per square centimeter | Cell count ([4]; day 6): 8800.26 cells per square centimeter | Cell count ([4]; day 7): 10895.65 cells per square centimeter | Cell-associated fluorescence ([4]; flow cytometry): significant cell-associated fluorescence | Free colchicine hydrolysis product detected by HPLC ([5]; pH 4.21, 5.74, 7.35): the expected aidehyde, compound 18 | Cleavage of (19) to produce (18) ([5]; pH 4.21, 24 hours): 78% | Cleavage of (19) to produce (18) ([5]; pH 4.21, 48 hours): 100% | Cleavage of (19) to produce (18) ([5]; pH 5.74, 24 hours): 45% | Cleavage of (19) to produce (18) ([5]; pH 5.74, 48 hours): 100% | Cleavage of (19) to produce (18) ([5]; pH 7.35, 24 hours): 36% | Cleavage of (19) to produce (18) ([5]; pH 7.35, 48 hours): 77%

CCCCCCCCCCCCCCCCCCCCCC[N+]1=C(C=CC=C2N(CCCCCCCCCCCCCC)c3ccc(CNC=O)cc3C2(C)C)C(C)(C)c2ccccc21 [Compound 7, 1'-docosanyl-5(N-formylaminomethyl)-1-tetradecyl-3,3,3',3'tetramethylindocarbocyanine iodide]
% Bound ([6]; 5% BSA): 94.96% | % Free ([6]; 5% BSA): 5.04% | Fluorescence intensity, supernatant [6, 7]: 73.69 | Fluorescence intensity, suspension [6, 7]: 1439.00

interferon-gamma
Myointimal thickening [3]: reduction of myointimal thickening

CC(C)[C@@H]1NC(=O)[C@H](CCCCN)NC(=O)[C@@H](Cc2c[nH]c3ccccc23)NC(=O)[C@H](Cc2ccc(O)cc2)NC(=O)[C@@H](NC(=O)[C@H](N)Cc2ccc3ccccc3c2)CSSC[C@@H](C(=O)N[C@H](C(N)=O)[C@@H](C)O)NC1=O [Angiopeptin]
Myointimal thickening [3]: reduction of myointimal thickening
